US9023789B2, “Amylin analogs and pharmaceutical compositions thereof” (Novo Nordisk A/S, priority 2012, dated 2015)
Like-named read-outs stand apart in the source and are kept apart here. Numbered stars: 1 amine (or outer) side, 2 acyl side, 3 side chain; on linkers, the order of the positions; unused ones are H or OH. Bridge positions count the residues as written; N and C are the ends. Side chains are listed from the residue outwards. Peptide text beside a SMILES is read from it. * marks the point of attachment. C20 diacid = O=C(O)CCCCCCCCCCCCCCCCCCC(=O)*; γGlu = O=C(O)[C@H](CCC(=O)[*:2])N[*:1]; AEEA = NCCOCCOCC(=O)O

Legend:
[1] = biological target: T1, rat amylin receptor (rat calcitonin receptor + rat RAMP 3) (Rattus norvegicus, UniProt P32214+Q9JJ73); test: ASSAY (VI) binding to the rat amylin receptor
T1 construct: expressed in transfected cells; host or cells: BHK tk'ts 13 (transient, FuGENE 6), membranes
T1 sequence (P32214 25-479 isoform P32214-2 limits assumed): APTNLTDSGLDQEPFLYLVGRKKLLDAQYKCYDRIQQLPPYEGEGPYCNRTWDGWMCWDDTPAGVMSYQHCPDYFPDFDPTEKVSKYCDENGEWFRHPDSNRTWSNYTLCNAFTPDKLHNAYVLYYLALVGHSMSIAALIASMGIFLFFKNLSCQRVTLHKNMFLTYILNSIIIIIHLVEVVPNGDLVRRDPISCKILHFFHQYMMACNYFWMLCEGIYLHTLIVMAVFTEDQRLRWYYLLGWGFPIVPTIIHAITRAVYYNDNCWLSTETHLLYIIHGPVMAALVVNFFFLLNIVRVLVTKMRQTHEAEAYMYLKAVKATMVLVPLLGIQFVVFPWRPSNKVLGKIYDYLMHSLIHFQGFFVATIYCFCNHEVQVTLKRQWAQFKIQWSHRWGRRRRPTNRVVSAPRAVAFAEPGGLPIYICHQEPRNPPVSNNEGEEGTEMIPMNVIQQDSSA
T1 sequence (Q9JJ73 23-147 partner): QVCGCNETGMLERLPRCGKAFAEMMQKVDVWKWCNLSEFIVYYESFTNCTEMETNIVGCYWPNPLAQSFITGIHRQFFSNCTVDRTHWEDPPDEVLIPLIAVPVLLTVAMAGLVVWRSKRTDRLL
Summary of the method: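 Membranes for this rat amylin receptor binding assay came from BHK tk′ts 13 cells. The cells were transiently transfected with rat calcitonin receptor using the FuGENE® 6 reagent from Roche, as the manufacturer recommends. The cells were collected approximately 48 hours after transfection, and membranes were then prepared.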

[2] = biological target: T2, human amylin receptor (membranes from Amylin 3(a)/CRE-luc cells) (Homo sapiens, UniProt O60896+P30988); test: ASSAY (V) binding to the human amylin receptor (SPA, 125I-rat amylin);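 further: competition binding of cell membranes (35 ng/µL) mixed with SPA beads in 384-well plates at 40 µL total volume, read by scintillation counting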
T2 construct: expressed in transfected cells
T2 sequence (P30988 25-474): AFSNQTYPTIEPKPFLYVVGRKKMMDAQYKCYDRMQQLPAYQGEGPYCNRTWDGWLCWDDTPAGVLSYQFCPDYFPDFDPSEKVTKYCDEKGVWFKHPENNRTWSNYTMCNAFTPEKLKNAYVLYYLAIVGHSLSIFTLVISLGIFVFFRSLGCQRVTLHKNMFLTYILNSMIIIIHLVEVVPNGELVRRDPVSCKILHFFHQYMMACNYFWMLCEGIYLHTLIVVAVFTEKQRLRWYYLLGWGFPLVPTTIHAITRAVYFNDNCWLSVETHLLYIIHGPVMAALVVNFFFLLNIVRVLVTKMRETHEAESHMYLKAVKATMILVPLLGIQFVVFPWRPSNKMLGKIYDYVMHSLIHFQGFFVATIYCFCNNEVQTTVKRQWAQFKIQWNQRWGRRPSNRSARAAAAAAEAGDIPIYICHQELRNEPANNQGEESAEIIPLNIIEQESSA
T2 sequence (O60896 24-148 partner): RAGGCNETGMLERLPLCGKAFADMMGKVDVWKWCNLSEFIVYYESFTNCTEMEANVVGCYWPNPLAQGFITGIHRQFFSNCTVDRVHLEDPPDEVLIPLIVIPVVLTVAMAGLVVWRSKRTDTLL

[3] = biological target: T3, human amylin 3(a) receptor (human calcitonin receptor + RAMP-3) in BHK570 cells (Homo sapiens, UniProt O60896+P30988); test: ASSAY (II)a functional assay, human amylin receptor (CRE luciferase); type: cell-based
T3 construct: expressed in transfected cells
Summary of the method: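 Readout is luminescence from a cAMP-responsive CRE-luc reporter, developed with LucLite for 30 min at room temperature. Cells were treated for 3 h at 37 °C in 10% FBS/DMEM buffered with 10 mM Hepes (pH 7.4).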

[4] = Table 7, rat binding selectivity, rCTR IC50 / rAmylin-R IC50
[5] = Table 7a (preferred compounds), rat binding selectivity, rCTR IC50 / rAmylin-R IC50
[6] = ratio of rCTR bind IC50 to rAmylin-R bind IC50
[7] = Table 5, selectivity, hCTR bind IC50 / hAmylin-R bind IC50
[8] = Table 5a, selectivity, hCTR bind IC50 / hAmylin-R bind IC50
[9] = Table 5b, selectivity, hCTR bind IC50 / hAmylin-R bind IC50
[10] = Table 5c, selectivity, hCTR bind IC50 / hAmylin-R bind IC50
[11] = Table 7, human binding selectivity, included for comparison
[12] = Table 7a (preferred compounds), human binding selectivity, included for comparison
[13] = ratio of human calcitonin receptor binding IC50 to human amylin receptor binding IC50
[14] = hCTR funct. EC50 divided by hAmylin-R funct. EC50
[15] = hCTR funct. EC50 over hAmylin-R funct. EC50
[16] = human functional selectivity: hCTR funct. EC50 / hAmylin-R funct. EC50
[17] = Table 7, binding to rat amylin receptor, read-out: rAmylin-R bind IC50

Structure (SMILES)	IC50 [1] [nM]	Ratio rCT/rAmylin binding [1, 4]	Ratio rCT/rAmylin binding [1, 5]	Ratio rCT/rAmylin binding [1, 6]	Ratio hCT/hAmylin binding [2, 7]	Ratio hCT/hAmylin binding [2, 8]	Ratio hCT/hAmylin binding [2, 9]	Ratio hCT/hAmylin binding [2, 10]	Ratio hCT/hAmylin binding [2, 11]	Ratio hCT/hAmylin binding [2, 12]	Ratio hCT/hAmylin binding [2, 13]	Ratio hCT/hAmylin funct. [3, 14]	Ratio hCT/hAmylin funct. [3, 15]	Ratio hCT/hAmylin funct. [3, 16]	IC50 [1, 17] [nM]	IC50 ([2]; Table 4, read-out: hAmylin-R bind IC50) [nM]	EC50 ([3]; human amylin receptor functional potency, assay (II), read-out: hAmylin-R funct. EC50) [nM]
CC[C@H](C)[C@H](NC(=O)[C@H](C)NC(=O)CNC(=O)[C@H](Cc1ccccc1)NC(=O)[C@H](CC(N)=O)NC(=O)[C@@H]1CCCN1C(=O)[C@H](CO)NC(=O)[C@H](CO)NC(=O)[C@H](Cc1c[nH]cn1)NC(=O)[C@H](CCCNC(=N)N)NC(=O)[C@H](CC(C)C)NC(=O)[C@H](Cc1ccccc1)NC(=O)[C@H](CO)NC(=O)[C@H](C)NC(=O)[C@H](CC(C)C)NC(=O)[C@H](CCCNC(=N)N)NC(=O)[C@H](CCC(N)=O)NC(=O)[C@@H](NC(=O)[C@H](C)NC(=O)[C@@H]1CSSC[C@H](NC(=O)[C@@H](N)CCCCNC(=O)COCCOCCNC(=O)CC[C@H](NC(=O)CCCCCCCCCCCCCCCCCCC(=O)O)C(=O)O)C(=O)N[C@@H](CC(N)=O)C(=O)N[C@@H]([C@@H](C)O)C(=O)N[C@@H](C)C(=O)N[C@@H]([C@@H](C)O)C(=O)N1)[C@@H](C)O)C(=O)N1CCC[C@H]1C(=O)N[C@@H](CO)C(=O)N[C@@H](CO)C(=O)N[C@H](C(=O)N1CCC[C@H]1C(=O)N[C@H](C(=O)NCC(=O)N[C@@H](CO)C(=O)N[C@@H](CC(N)=O)C(=O)N[C@H](C(=O)N[C@@H](Cc1ccc(O)cc1)C(N)=O)[C@@H](C)O)C(C)C)[C@@H](C)O [Example 73] (H-K([AEEA-γGlu-C20 diacid])CNTATCATQRLASFLRHSSPNFGAIPSSTPVGSNTY-NH2; disulfide 2-7 (inferred))	0.283	177.7	177.7	177.7	51.7	51.7	51.7	51.7	51.7	51.7	51.7	11.3	11.3	11.3			
CC[C@H](C)[C@H](NC(=O)[C@H](C)NC(=O)CNC(=O)[C@H](Cc1ccccc1)NC(=O)[C@H](CC(N)=O)NC(=O)[C@@H]1CCCN1C(=O)[C@H](CO)NC(=O)[C@H](CO)NC(=O)[C@H](Cc1c[nH]cn1)NC(=O)[C@H](CCCNC(=N)N)NC(=O)[C@H](CC(C)C)NC(=O)[C@H](Cc1ccccc1)NC(=O)[C@H](CCCNC(=N)N)NC(=O)[C@H](C)NC(=O)[C@H](CC(C)C)NC(=O)[C@H](CCCNC(=N)N)NC(=O)[C@H](CCC(N)=O)NC(=O)[C@@H](NC(=O)[C@H](C)NC(=O)[C@@H]1CSSC[C@H](NC(=O)[C@@H](N)CCCCNC(=O)CC[C@H](NC(=O)CCCCCCCCCCCCCCCCCCC(=O)O)C(=O)O)C(=O)N[C@@H](CC(N)=O)C(=O)N[C@@H]([C@@H](C)O)C(=O)N[C@@H](C)C(=O)N[C@@H]([C@@H](C)O)C(=O)N1)[C@@H](C)O)C(=O)N1CCC[C@H]1C(=O)N[C@@H](CO)C(=O)N[C@@H](CO)C(=O)N[C@H](C(=O)N1CCC[C@H]1C(=O)N[C@H](C(=O)NCC(=O)N[C@@H](CO)C(=O)N[C@@H](CC(N)=O)C(=O)N[C@H](C(=O)N[C@@H](Cc1ccc(O)cc1)C(N)=O)[C@@H](C)O)C(C)C)[C@@H](C)O [Example 63] (H-K([γGlu-C20 diacid])CNTATCATQRLARFLRHSSPNFGAIPSSTPVGSNTY-NH2; disulfide 2-7 (inferred); N-terminus assumed)		35.6	35.6	35.6	157.1	157.1	157.1	157.1	157.1	157.1	157.1	138.7	138.7	138.7	3.48		
CC[C@H](C)[C@H](NC(=O)[C@H](C)NC(=O)CNC(=O)[C@H](Cc1ccccc1)NC(=O)[C@H](CC(N)=O)NC(=O)[C@@H]1CCCN1C(=O)[C@H](CO)NC(=O)[C@H](CO)NC(=O)[C@H](Cc1c[nH]cn1)NC(=O)[C@H](CCCNC(=N)N)NC(=O)[C@H](CC(C)C)NC(=O)[C@H](Cc1ccccc1)NC(=O)[C@H](Cc1c[nH]cn1)NC(=O)[C@H](C)NC(=O)[C@H](CC(C)C)NC(=O)[C@H](CCCNC(=N)N)NC(=O)[C@H](CCC(N)=O)NC(=O)[C@@H](NC(=O)[C@H](C)NC(=O)[C@@H]1CSSC[C@H](NC(=O)[C@@H](N)CCCCNC(=O)CC[C@H](NC(=O)CCCCCCCCCCCCCCCCCCC(=O)O)C(=O)O)C(=O)N[C@@H](CC(N)=O)C(=O)N[C@@H]([C@@H](C)O)C(=O)N[C@@H](C)C(=O)N[C@@H]([C@@H](C)O)C(=O)N1)[C@@H](C)O)C(=O)N1CCC[C@H]1C(=O)N[C@@H](CO)C(=O)N[C@@H](CO)C(=O)N[C@H](C(=O)N[C@@H](CC(N)=O)C(=O)N[C@H](C(=O)NCC(=O)N[C@@H](CO)C(=O)N[C@@H](CC(N)=O)C(=O)N[C@H](C(=O)N[C@@H](Cc1ccc(O)cc1)C(N)=O)[C@@H](C)O)C(C)C)[C@@H](C)O [Example 70] (H-K([γGlu-C20 diacid])CNTATCATQRLAHFLRHSSPNFGAIPSSTNVGSNTY-NH2; disulfide 2-7; N-terminus assumed)		96.5	96.5	96.5	60.8	60.8	60.8	60.8	60.8	60.8	60.8	17.9	17.9	17.9	0.355	0.169	0.04
